Reference: the Kinase Knowledgebase extract (Sharma et al. 2016)

biological target: CDK2 (human) (UniProt P24941); test: Enzyme Assay

Structure (SMILES)	IC50 [nM]
N[C@H]1CC[C@H](Nc2nc(NCCc3ccncc3)c3ncn(C4CCCC4)c3n2)CC1	69
CCCCNc1nc(N[C@H]2CC[C@H](N)CC2)nc2c1ncn2C1CCCC1	23
N[C@H]1CC[C@H](Nc2nc(NCc3cccs3)c3ncn(C4CCCC4)c3n2)CC1	56
N[C@H]1CC[C@H](Nc2nc(NNCC(F)(F)F)c3ncn(C4CCCC4)c3n2)CC1	58
CCCCCNc1nc(N[C@H]2CC[C@H](N)CC2)nc2c1ncn2C1CCCC1	53

Further compounds by falling IC50, results first:

IC50 [nM]	Structure (SMILES)
840	CC(C)n1cnc2c(NCCCC(=O)c3ncc[nH]3)nc(N[C@H]3CC[C@H](N)CC3)nc21
360	CCCCCCCCNc1nc(N[C@H]2CC[C@H](N)CC2)nc2c1ncn2C1CCCC1
141	CC(C)n1cnc2c(NCC3CC3)nc(N[C@H]3CC[C@H](N)CC3)nc21
116	N[C@H]1CC[C@H](Nc2nc(NCCCN3CCOCC3)c3ncn(C4CCCC4)c3n2)CC1
59	N[C@H]1CC[C@H](Nc2nc(NCCCCc3ccccc3)c3ncn(C4CCCC4)c3n2)CC1
18	N[C@H]1CC[C@H](Nc2nc(NCCCO)c3ncn(C4CCCC4)c3n2)CC1
13	CCNc1nc(N[C@H]2CC[C@H](N)CC2)nc2c1ncn2C1CCCC1
